Test results taken from US20250171463A1 (BIOGEN MA INC., priority 2022, published 2025).
pIC50: −log10 of the molar value.

Molecular target: T1, EBP (Homo sapiens, UniProt Q15125)
T1 construct: HEK293T cells were utilized as the source of EBP enzyme; endogenous in cells; host or cells: HEK293T
Experiment: EBP Functional Assay (EBP immunoaffinity LC-MS assay)
Type: biochemical
Conditions: EBP enzyme from HEK293T cells; 30 min with inhibitor, then zymosterol-d5, 37° C., 4 h; percent conversion to dehydrolathosterol-d5 by LC-APCI MRM MS
Method in brief: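 HEK293T cells served as EBP source; enzyme preincubated 30 min with inhibitor dilutions, then zymosterol-d5 substrate added and incubated 4 h at 37° C. Sterols extracted and quantified by LC-APCI MRM MS; percent conversion to […] fit to 4-parameter logistic for IC50. Tasin-1 reference inhibitor.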

T1 sequence (Q15125 whole entry): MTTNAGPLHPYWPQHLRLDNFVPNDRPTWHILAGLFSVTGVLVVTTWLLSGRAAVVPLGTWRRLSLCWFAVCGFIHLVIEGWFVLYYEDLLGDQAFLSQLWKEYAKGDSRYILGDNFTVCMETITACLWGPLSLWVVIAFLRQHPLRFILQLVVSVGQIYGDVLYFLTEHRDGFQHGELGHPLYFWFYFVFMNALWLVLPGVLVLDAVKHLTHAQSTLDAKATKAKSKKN

Row | pIC50 | SMILES
1 | 5.40 to 6.60 | O=S(=O)(c1cccnc1C(F)(F)F)N1CC2(CN(CC3CCOCC3)C2)C1 [Example 201, 2-((tetrahydro-2H-pyran-4-yl)methyl)-6-((2-(trifluoromethyl)pyridin-3-yl)sulfonyl)-2,6-diazaspiro[3.3]heptane]
2 | 6.60 to 7.00 | Cc1nc(C(F)(F)F)ccc1S(=O)(=O)N1CC2(CN(CC3COC3)C2)C1 [Example 154]
3 | > 7.00 | Cc1nc(C(C)(F)F)ccc1S(=O)(=O)N1CC2(CN(C(C)C3CCOC3)C2)C1 (centres unmarked) [Example 86]
4 | 6.60 to 7.00 | Cc1nc(C(F)(F)F)ccc1S(=O)(=O)N1CC2(CN(CC3CC4(COC4)C3)C2)C1 [Example 113]
5 | > 7.00 | Cc1nc(C(F)(F)F)ccc1S(=O)(=O)N1CC2(CN(CC3(C)CCOCC3)C2)C1 [Example 129, 2-((2-methyl-6-(trifluoromethyl)pyridin-3-yl)sulfonyl)-6-((4-methyltetrahydro-2H-pyran-4-yl)methyl)-2,6-diazaspiro[3.3]heptane]
6 | 5.40 to 6.60 | O=S(=O)(c1ccc(OC(F)F)cc1)N1CCOC2(CN(C3CCOCC3)C2)C1 [Example 1, 8-((4-(Difluoromethoxy)phenyl)sulfonyl)-2-(tetrahydro-2H-pyran-4-yl)-5-oxa-2,8-diazaspiro[3.5]nonane]
7 | 5.40 to 6.60 | CCc1nc(C(F)F)ccc1S(=O)(=O)N1CC2(C1)CN([C@H]1CC[C@](C)(O)CC1)C2 [Example 207, (1r,4r)-4-(6-((6-(difluoromethyl)-2-ethylpyridin-3-yl)sulfonyl)-2,6-diazaspiro[3.3]heptan-2-yl)-1-methylcyclohexan-1-ol]
8 | 6.60 to 7.00 | Cc1cc(C(F)(F)F)nc(C)c1S(=O)(=O)N1CC2(CN(CC3CCOC3)C2)C1 (racemic) [Example 103]
9 | > 7.00 | O=S(=O)(c1ccc(C2CC2)nc1C(F)(F)F)N1CC2(CN(C3CCOCC3)C2)C1 [Example 107, 2-((6-cyclopropyl-2-(trifluoromethyl)pyridin-3-yl)sulfonyl)-6-(tetrahydro-2H-pyran-4-yl)-2,6-diazaspiro[3.3]heptane]
10 | 6.60 to 7.00 | Cc1nc(C(F)(F)F)ccc1S(=O)(=O)N1CC2(CN(CC3CCOC3)C2)C1 (single isomer, unassigned) [Example 160]
11 | 5.40 to 6.60 | O=S(=O)(c1ccc(OC(F)F)cc1)N1CCOC2(CCN(CC3CCOCC3)C2)C1 (centres unmarked) [Example 18, 9-((4-(Difluoromethoxy)phenyl)sulfonyl)-2-((tetrahydro-2H-pyran-4-yl)methyl)-6-oxa-2,9-diazaspiro[4.5]decane]
12 | 6.60 to 7.00 | Cc1nc(C(F)(F)F)ccc1S(=O)(=O)N1CC2(C1)CN([C@H]1C[C@@]3(CCO3)C1)C2 [Example 71, 2-((2-methyl-6-(trifluoromethyl)pyridin-3-yl)sulfonyl)-6-((4r,6r)-1-oxaspiro[3.3]heptan-6-yl)-2,6-diazaspiro[3.3]heptane]
13 | > 7.00 | Cc1nc(C(F)(F)F)ccc1S(=O)(=O)N1CC2(CN(CC3(C)COC3)C2)C1 [Example 141]
14 | 5.40 to 6.60 | Cc1nc(C(F)(F)F)ccc1S(=O)(=O)N1CC2(CN(C3CCC(C)(O)CC3)C2)C1 (centres unmarked) [Example 223, 1-methyl-4-(6-((2-methyl-6-(trifluoromethyl)pyridin-3-yl)sulfonyl)-2,6-diazaspiro[3.3]heptan-2-yl)cyclohexan-1-ol]
15 | > 7.00 | CCc1nc(C(F)(F)F)ccc1S(=O)(=O)N1CC2(CN(C3CCOCC3)C2)C1 [Example 204, 2-((2-ethyl-6-(trifluoromethyl)pyridin-3-yl)sulfonyl)-6-(tetrahydro-2H-pyran-4-yl)-2,6-diazaspiro[3.3]heptane]
16 | 5.40 to 6.60 | CCc1cc(C(F)(F)F)ncc1S(=O)(=O)N1CC2(CN(C3CC4(COC4)C3)C2)C1 [Example 125, 2-((4-ethyl-6-(trifluoromethyl)pyridin-3-yl)sulfonyl)-6-(2-oxaspiro[3.3]heptan-6-yl)-2,6-diazaspiro[3.3]heptane]

Row | pIC50 | SMILES
17 | > 7.00 | Cc1nc(C(F)(F)F)ccc1S(=O)(=O)N1CC2(CCN(C3CCOCC3)C2)C1 [Example 56]
18 | > 7.00 | Cc1nc(C2(C(F)(F)F)CC2)ccc1S(=O)(=O)N1CC2(CN(CC3CCOCC3)C2)C1 [Example 191, 2-((2-methyl-6-(1-(trifluoromethyl)cyclopropyl)pyridin-3-yl)sulfonyl)-6-((tetrahydro-2H-pyran-4-yl)methyl)-2,6-diazaspiro[3.3]heptane]
19 | 6.60 to 7.00 | COC(C)CCCN1CC2(C1)CN(S(=O)(=O)c1ccc(C(F)(F)F)nc1C)C2 (centres unmarked) [Example 180]
20 | > 7.00 | Cc1nc(C(F)(F)F)ccc1S(=O)(=O)N1CC2(CN(C3CCOCC3(C)C)C2)C1 (centres unmarked) [Example 142]
21 | > 7.00 | O=S(=O)(c1ccc(C(F)(F)F)nc1Cl)N1CC2(CN(C3CCOCC3)C2)C1 [Example 192, 2-((2-chloro-6-(trifluoromethyl)pyridin-3-yl)sulfonyl)-6-(tetrahydro-2H-pyran-4-yl)-2,6-diazaspiro[3.3]heptane]
22 | 6.60 to 7.00 | O=S(=O)(c1ccc(OC(F)F)cc1)N1CCO[C@@]2(CCN(C3CC4(COC4)C3)C2)C1 (single isomer, unassigned) [Example 26]
23 | 6.60 to 7.00 | Cc1nc(C(F)(F)F)ccc1S(=O)(=O)N1CC2(CN(CC[C@@H]3COC(C)(C)O3)C2)C1 (racemic) [Example 173]
24 | 5.40 to 6.60 | CCN1CC2(C1)CN(S(=O)(=O)c1ccc(C(F)(F)F)nc1C)C2 [Example 170]
25 | > 7.00 | Cc1nc(C2CC2(F)F)ccc1S(=O)(=O)N1CC2(CN(C3CCOCC3)C2)C1 (centres unmarked) [Example 163, 2-((6-(2,2-difluorocyclopropyl)-2-methylpyridin-3-yl)sulfonyl)-6-(tetrahydro-2H-pyran-4-yl)-2,6-diazaspiro[3.3]heptane]
26 | > 7.00 | Cc1cc(C)c(S(=O)(=O)N2CC3(CCN(C4CCOCC4)C3)C2)cn1 [Example 53]
27 | > 7.00 | Cn1nc(C(F)(F)F)cc1S(=O)(=O)N1CCC2(CCN(C3CCOCC3)C2)CC1 [Example 40]
28 | 6.60 to 7.00 | O=S(=O)(c1ccc(OC(F)F)cc1)N1[C@@H]2CC[C@H]1CC1(C2)CN(C2CCOCC2)C1 [Example 61, (1′R,5′S)-8′-((4-(Difluoromethoxy)phenyl)sulfonyl)-1-(tetrahydro-2H-pyran-4-yl)-8′-azaspiro[azetidine-3,3′-bicyclo[3.2.1]octane]]
29 | 6.60 to 7.00 | Cn1nc(C(C)(F)F)cc1S(=O)(=O)N1CC2(CN(CC3CCOCC3)C2)C1 [Example 210, 2-((3-(1,1-difluoroethyl)-1-methyl-1H-pyrazol-5-yl)sulfonyl)-6-((tetrahydro-2H-pyran-4-yl)methyl)-2,6-diazaspiro[3.3]heptane]
30 | > 7.00 | Cc1nc(C(F)(F)F)ccc1S(=O)(=O)N1CC2(C1)CN([C@H]1C[C@]3(CCO3)C1)C2 [Example 70, 2-((2-methyl-6-(trifluoromethyl)pyridin-3-yl)sulfonyl)-6-((4s,6s)-1-oxaspiro[3.3]heptan-6-yl)-2,6-diazaspiro[3.3]heptane]
31 | 5.40 to 6.60 | Cc1nc(C(F)(F)F)ccc1S(=O)(=O)N1CC2(CN(CC3COCCO3)C2)C1 (racemic) [Example 216, rac-2-((1,4-dioxan-2-yl)methyl)-6-((2-methyl-6-(trifluoromethyl)pyridin-3-yl)sulfonyl)-2,6-diazaspiro[3.3]heptane]
32 | 6.60 to 7.00 | COC(C)(C)CN1CCC2(CC1)CN(S(=O)(=O)c1ccc(OC(F)F)cc1)CCO2 [Example 11, 4-((4-(Difluoromethoxy)phenyl)sulfonyl)-9-(2-methoxy-2-methylpropyl)-1-oxa-4,9-diazaspiro[5.5]undecane]
